In brackets after ≈: the same amount, converted by molar mass. Starred links: 1 amine or outer side, 2 acyl side, 3 side chain; linkers in the order of their positions; H or OH if unused. Non-standard residues stand in square brackets, D forms with d. Residues, ends and D or L forms follow the SMILES beside them. ξ: configuration not given here. *: point of attachment. X1 = CCC(=O)C[C@@H](O)C[C@@H](C)C[C@H](N[*:1])C(=O)[*:2]; Alaψ(CH2NMeCH2CH2OH) = C[C@@H](CN(C)CCO)N*; Decanoyl(2R-Me) = CCCCCCCC[C@@H](C)C(=O)*; Ile(3ξ) = CCC(C)[C@H](N)C(=O)O; ξβ3hP = O=C(O)CC1CCCN1; Aib = CC(C)(N)C(=O)O
Key:
Assay type in all cases: functional
[1] = tested on: Mycobacterium tuberculosis variant bovis; assay: Antimycobacterial activity against Mycobacterium bovis BCG ATCC 35737 at 50 uM by Luminescence assay
[2] = tested on: Mycobacterium tuberculosis variant bovis; assay: Antibacterial activity against Mycobacterium bovis BCG assessed as complete inhibition of bacterial growth by Alamar Blue/Resazurin
[3] = tested on: Mycobacterium tuberculosis variant bovis; assay: Antibacterial activity against Mycobacterium bovis BCG assessed as inhibition of bacterial growth by microdilution based analysis
[4] = tested on: Mycobacterium tuberculosis variant bovis; assay: Antimycobacterial activity against Mycobacterium bovis BCG assessed as reduction in bacterial growth incubated for 48 hrs by HT-SPOTi assay

Cc1ccc(C(=O)N2CCOCC2)cc1Nc1nccn1-c1cc(NC2CC2)ncn1
MIC [1]: 0.036 µM (≈ 0.0151 µg/mL)

CCc1nc2ccc(Cl)cn2c1C(=O)NCc1ccc(N2CCC(c3ccc(OC(F)(F)F)cc3)CC2)cc1 [TELACEBEC]
MIC90 [2]: 0.125 µg/mL (≈ 0.224 µM)

Cc1ccc2nc(C)c(C(=O)NCc3ccc(C(F)(F)F)cc3)n2c1
MIC [3]: 0.5 µM (≈ 0.174 µg/mL)

CCCCCCCC[C@@H](C)C(=O)N1CCCC1CC(=O)N[C@@H](C[C@H](C)C[C@H](O)CC(=O)CC)C(=O)NC(C)(C)C(=O)NC(C)(C)C(=O)N[C@H](C(=O)N[C@H](C(=O)NC(C)(C)C(=O)NC(C)(C)C(=O)N[C@@H](C)CN(C)CCO)C(C)C)C(C)CC (stereo partly drawn) ({Decanoyl(2R-Me)}-[ξβ3hP][X1][Aib][Aib][Ile(3ξ)]V[Aib][Aib]-{Alaψ(CH2NMeCH2CH2OH)})
MIC50 [4]: 33 µM (≈ 38.9 µg/mL)
